Experimental data reported in patent US20240415845A1, “Compositions of Iboga Alkaloids and Methods of Treatment” (priority 2022, published 2024).
“Also recorded” adds a separate entry of the source.

Experiments:
[1] = tested on: special operations veterans with combat and/or blast exposure; assay: Safety monitoring during and after treatment (adverse events, QTc by ECG); type: in vivo, human
Procedure: (§1) With subjects in the fasting state, an intravenous infusion of 1 gram of magnesium sulfate was administered 1-2 hours prior to treatment. […] Medical staff (MD, RN, or EMT) were onsite at a ratio of at least 1 staff per 2 patients throughout treatment for monitoring and management, but no specific coaching or psychological support was provided during treatment.

[2] = tested on: special operations veterans with combat and/or blast exposure; assay: World Health Organization Disability Assessment Schedule 2.0 (WHODAS 2.0); type: in vivo, human; conditions: for WHODAS 2.0 Total, effect size D (Cohen's D) / WHODAS 2.0 Total score: all participants; for WHODAS 2.0 Total score: baseline 30.2 ± 14.7, mean ± SD; for WHODAS 2.0 Self Care subscale: baseline 5.2% ± 9.2%; for WHODAS 2.0 Mobility subscale: baseline 14.7% ± 15.7%; for WHODAS 2.0 Interpersonal subscale: baseline 32.3% ± 20.4; for WHODAS 2.0 Community Participation subscale: baseline 35.6% ± 21.1%; for WHODAS 2.0 Cognition subscale: baseline 36.1% ± 14.6%; for WHODAS 2.0 Life Activities subscale: baseline 41.1% ± 24.8%
From the text: The pre-specified primary outcome was change in the World Health Organization Disability Assessment Schedule 2.0 (WHODAS) (Gold L. H. et al., J. Am. Acad. Psychiatry Law 42, 9 (2014)) from baseline to post-treatment, with change from baseline to the one-month follow-up a secondary outcome. Additional pre-specified secondary outcomes included post-treatment changes on the Clinician Administered PTSD Scale (CAPS-5; Weathers, F. W. et al., Psychol. Assess., 30, 383-395 (2018)), Montgomery-Åsberg Depression Rating Scale (MADRS; Montgomery, S. A., Br. J. Psychiatry J. Ment. Sci., 134, 382-389 (1979)) and the Hamilton-Anxiety Rating Scale (HAM-A; Bruss, G. S., et al., Psychiatry Res., 53, 191-202 (1994)). […] An additional dose of magnesium was administered approximately 12 hours later. To assess the significance of post-treatment changes, linear mixed effects (LME) models were used for each outcome measure. False Discovery Rate (FDR; Benjamini, Y. et al., J. R. Stat. Soc. Ser. B Methodol., 57, 289-300 (1995)) was applied to correct for multiple comparisons.
as §1
Post treatment, each subject was assessed four days after treatment, one month after treatment, and, if willing, one year after treatment. The post-treatment assessments conducted at four days and at one month after treatment included neuropsychological testing, measures of PTSD, depression, anxiety, mystical experiences, functional imaging and EEG. Post-treatment assessments conducted at one year after treatment included PTSD, depression, and anxiety measures.
World Health Organization Disability Assessment Scale 2.0 (WHODAS 2.0) was used as a measure of function. WHODAS was used to assess the impact of health conditions across six life domains (cognition, mobility, self-care, interpersonal, life activities, and community participation) and it is sensitive to change over time (Gold, L. H., J. Am. Acad. Psychiatry Law 42, 9 (2014). Each item in the assessment is rated on a scale ranging from no problems to extreme problems (Üstün, T. B. et al., Measuring health and disability: Manual for WHO disability assessment schedule WHODAS 2.0. (World Health Organization, 2010)). To capture inter-individual variability in disability the WHODAS complex scoring method was used. Raw scores were converted to a metric ranging from 0(no disability) to 100 (full disability), by calculating the ratio of the participant's score relative to the maximum possible score in each domain as well as to the total score (Id.). A score of 20%-39% was considered mild, 40%-59% was moderate, 60%-79% was moderate-severe and 80%-100% was severe. Scores from baseline were compared to scores from one-month post treatment.
A measure of disability for health and disability on life functions is the World Health Organization Disability Assessment Schedule 2.0 (WHODAS). The items are designed to be sensitive to change due to a treatment, and the measure assesses disability over the past 30 days. The items measured are cognition, self-care, mobility, getting along. life activity, and participation in society. The WHODAS measure gives a rating of 1 for no disability, 2 for mild disability and 3 for moderate disability. FIG. 7A is a graph showing results from the World Health Organization Disability Assessment Scale 2.0 (WHODAS 2.0) assessment for each subject at baseline (prior to treatment), about one week after treatment, and one month after treatment. The dashed line represents the means of the individual scores. FIG. 7B is a bar graph of self-reported disability using the WHODAS total scores at baseline and one-month after treatment.

## CCC1CC2CC3c4[nH]c5ccc(OC)cc5c4CCN(C2)C13 (centres unmarked) [ibogaine, Ibogaine]
[1]; 30 participants
  participants with transient cerebellar signs such as mild ataxia and intention tremor: All participants
[1]; 30 participants, oral ibogaine with IV magnesium sulfate
  unexpected or serious treatment-emergent side effects / adverse events: no unexpected or serious treatment-emergent side effects; also recorded: no unexpected or serious adverse events
[1]; continuous 5-lead ECG for 12-16 hours following administration
  prolongation of QTc: no instances of a concerning prolongation of QTc
[1]; human, in vivo, oral
  time to resolution of transient cerebellar signs: ≤ 24 h
[1]; while experiencing the oneirogenic effects, 1 participant
  participants treated for insomnia: 3%
[1]; while experiencing the oneirogenic effects, 2 participants
  participants treated for hypertension: 7%
[1]; while experiencing the oneirogenic effects, 3 participants
  participants treated for anxiety: 10%
[1]; while experiencing the oneirogenic effects, 7 participants
  participants treated for nausea: 23%
[1]; while experiencing the oneirogenic effects, 12 participants
  participants treated for headache: 40%
[2]; baseline vs one-month
  WHODAS 2.0 Cognition subscale, effect size D: 2.38
  WHODAS 2.0 Community Participation subscale, effect size D: 1.78
  WHODAS 2.0 Interpersonal subscale, effect size D: 1.63
  WHODAS 2.0 Life Activities subscale, effect size D: 1.44
  WHODAS 2.0 Mobility subscale, effect size D: 0.83
  WHODAS 2.0 Self Care subscale, effect size D: 0.51
[2]; baseline vs one-month post
  WHODAS 2.0 Total, effect size D (Cohen's D): 2.20
[2]; baseline vs one-week post
  WHODAS 2.0 Total, effect size D (Cohen's D): 0.74
[2]; baseline vs post-treatment
  WHODAS 2.0 Cognition subscale, effect size D: 0.96
  WHODAS 2.0 Community Participation subscale, effect size D: 0.53
  WHODAS 2.0 Interpersonal subscale, effect size D: 0.60
  WHODAS 2.0 Life Activities subscale, effect size D: 0.48
  WHODAS 2.0 Mobility subscale, effect size D: 0.53
  WHODAS 2.0 Self Care subscale, effect size D: 0.37
[2]; one-month post treatment, baseline about 2.5 (FIG. 7B)
  self-reported disability WHODAS total score (rating 1 no, 2 mild, 3 moderate disability): over 1
[2]; one-month post
  WHODAS 2.0 Total score: 5.1
[2]; one-month
  WHODAS 2.0 Self Care subscale: 1.0% ±
  WHODAS 2.0 Mobility subscale: 1.3% ±
  WHODAS 2.0 Interpersonal subscale: 4.8% ±
  WHODAS 2.0 Community Participation subscale: 5.9% ±
  WHODAS 2.0 Cognition subscale: 5.0% ±
  WHODAS 2.0 Life Activities subscale: 9.1% ±
[2]; one-week post
  WHODAS 2.0 Total score: 19.9
[2]; post-treatment
  WHODAS 2.0 Self Care subscale: 1.9% ±
  WHODAS 2.0 Mobility subscale: 7.2% ±
  WHODAS 2.0 Interpersonal subscale: 21.7% ±
  WHODAS 2.0 Community Participation subscale: 24.7% ±
  WHODAS 2.0 Cognition subscale: 19.2% ±
  WHODAS 2.0 Life Activities subscale: 31.6% ±
